Measured values reported in patent US20220249710A1, “BIOREDUCTIVELY-ACTIVATED COMPOUNDS, THEIR PRODRUGS, RADIOPHARMACEUTICALS, THE COMPOSITIONS, AND THEIR APPLICATIONS IN MULTIMODAL THERANOSTIC MANAGEMENT OF HYPOXIA DISEASES INCLUDING CANCER” (The Governors of the University of Alberta, priority 2017, published 2022).

System: FaDu tumor
Assay: In vivo radiosensitization therapy of FaDu tumor-bearing NuNu mice
Settings: bi-flank FaDu tumor-bearing NuNu mice, single chemical dose (20% of MTD) followed by single 10 Gy external beam radiotherapy
Text: In very brief, the evaluation of radiosensitization potential of IAZA using a single chemical dose (20% of the maximum tolerated dose; MTD) and a single radiation dose (10 Gy) was done in ‘bi-flank FaDu tumor-bearing NuNu mice was done. Benefits of IAZA-bestowed radiosensitization therapy effects were compared with the conventional radiotherapy alone (a single 10 Gy dose).
FIGS. 28 and 29 depict IN VIVO RADIOSENSITIZATION THERAPY OF FaDu TUMOR BEARING NU-NU MICE USING A SINGLE CHEMICAL DOSE OF IAZA (20% of MTD) AND 10 Gy RADIATION DOSE (Green stain indicates the hypoxic region in tumor)

[1] = compared with radiotherapy alone

O=[N+]([O-])c1nccn1[C@@H]1O[C@H](C[125I])[C@@H](O)[C@@H]1O [IAZA]
morbidity: no morbidity | hypoxic content of the tumor [1]: Reduction in hypoxic content of the tumor | tumor size [1]: tumor size reduction
